# Laboratory results from PMC6199744, “Development of Chemical Proteomics for the Folateome and Analysis of the Kinetoplastid Folateome” (ACS Infectious Diseases, 2018).
# Like-named read-outs stand apart in the source and are kept apart here.
# Assays:
# Assay type in all cases: binding
# [1] = biological target: T1, HeLa cell extract proteins (Homo sapiens, UniProt P60228)
# T1 construct: endogenous in cells; host or cells: HeLa cell extract
# [2] = biological target: T2, HeLa cell extract proteins (Homo sapiens, UniProt Q13310)
# T2 construct: endogenous in cells; host or cells: HeLa cell extract
# T2 sequence (Q13310 whole entry): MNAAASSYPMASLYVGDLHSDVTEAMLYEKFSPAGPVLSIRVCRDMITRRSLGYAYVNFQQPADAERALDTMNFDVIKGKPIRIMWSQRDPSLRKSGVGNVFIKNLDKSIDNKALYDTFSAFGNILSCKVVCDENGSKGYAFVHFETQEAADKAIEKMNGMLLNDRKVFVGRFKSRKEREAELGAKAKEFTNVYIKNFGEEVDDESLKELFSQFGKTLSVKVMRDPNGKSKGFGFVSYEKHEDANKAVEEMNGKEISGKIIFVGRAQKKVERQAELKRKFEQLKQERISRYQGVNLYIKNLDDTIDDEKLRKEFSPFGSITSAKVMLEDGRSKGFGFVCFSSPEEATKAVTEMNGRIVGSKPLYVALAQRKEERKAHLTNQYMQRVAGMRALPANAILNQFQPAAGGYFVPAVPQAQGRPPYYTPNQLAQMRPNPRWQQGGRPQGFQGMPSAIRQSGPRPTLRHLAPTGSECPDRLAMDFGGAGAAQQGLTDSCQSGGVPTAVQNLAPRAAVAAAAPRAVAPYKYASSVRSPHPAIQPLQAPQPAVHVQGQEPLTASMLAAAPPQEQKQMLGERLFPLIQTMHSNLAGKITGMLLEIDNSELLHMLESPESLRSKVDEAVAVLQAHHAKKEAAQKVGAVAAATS
# [3] = biological target: T3, HeLa cell extract proteins (Homo sapiens, UniProt O43747)
# T3 construct: endogenous in cells; host or cells: HeLa cell extract
# T3 sequence (O43747 1-822): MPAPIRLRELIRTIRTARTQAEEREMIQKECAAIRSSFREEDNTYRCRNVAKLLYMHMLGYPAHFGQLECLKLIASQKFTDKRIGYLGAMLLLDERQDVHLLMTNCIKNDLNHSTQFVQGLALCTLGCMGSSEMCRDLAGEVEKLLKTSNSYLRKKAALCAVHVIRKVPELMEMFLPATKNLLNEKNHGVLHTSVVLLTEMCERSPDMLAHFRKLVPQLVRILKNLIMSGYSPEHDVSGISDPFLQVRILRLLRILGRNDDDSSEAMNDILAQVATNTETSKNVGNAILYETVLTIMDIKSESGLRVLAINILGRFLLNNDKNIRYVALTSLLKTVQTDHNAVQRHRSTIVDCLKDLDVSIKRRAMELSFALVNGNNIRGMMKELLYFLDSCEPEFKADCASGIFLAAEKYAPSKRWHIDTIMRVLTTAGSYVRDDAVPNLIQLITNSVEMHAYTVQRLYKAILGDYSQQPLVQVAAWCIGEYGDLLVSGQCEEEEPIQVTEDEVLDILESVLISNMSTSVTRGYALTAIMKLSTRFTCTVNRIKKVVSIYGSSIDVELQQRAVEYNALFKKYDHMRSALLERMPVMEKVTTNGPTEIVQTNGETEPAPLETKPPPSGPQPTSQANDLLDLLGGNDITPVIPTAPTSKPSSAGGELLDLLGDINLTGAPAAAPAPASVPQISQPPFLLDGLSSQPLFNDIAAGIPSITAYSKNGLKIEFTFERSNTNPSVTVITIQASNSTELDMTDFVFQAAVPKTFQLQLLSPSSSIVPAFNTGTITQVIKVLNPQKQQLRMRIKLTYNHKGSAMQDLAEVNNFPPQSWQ
# [4] = biological target: T4, HeLa cell extract proteins (Homo sapiens, UniProt O15269)
# T4 construct: endogenous in cells; host or cells: HeLa cell extract
# T4 sequence (O15269 1-473): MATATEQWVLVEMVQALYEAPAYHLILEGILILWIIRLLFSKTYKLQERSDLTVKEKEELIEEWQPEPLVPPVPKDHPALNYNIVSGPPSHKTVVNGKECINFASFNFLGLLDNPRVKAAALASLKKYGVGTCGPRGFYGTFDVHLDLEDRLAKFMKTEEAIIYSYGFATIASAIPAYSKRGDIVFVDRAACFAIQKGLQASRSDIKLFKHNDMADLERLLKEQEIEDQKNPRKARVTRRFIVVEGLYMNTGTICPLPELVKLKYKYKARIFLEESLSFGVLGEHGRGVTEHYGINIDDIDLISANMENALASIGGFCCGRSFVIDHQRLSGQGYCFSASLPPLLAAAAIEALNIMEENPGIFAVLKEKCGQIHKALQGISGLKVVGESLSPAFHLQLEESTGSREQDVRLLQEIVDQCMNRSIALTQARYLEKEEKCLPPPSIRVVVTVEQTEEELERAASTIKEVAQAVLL
# [5] = biological target: T5, HeLa cell extract proteins (Homo sapiens, UniProt P46940)
# T5 construct: endogenous in cells; host or cells: HeLa cell extract
# T5 sequence (P46940 whole entry): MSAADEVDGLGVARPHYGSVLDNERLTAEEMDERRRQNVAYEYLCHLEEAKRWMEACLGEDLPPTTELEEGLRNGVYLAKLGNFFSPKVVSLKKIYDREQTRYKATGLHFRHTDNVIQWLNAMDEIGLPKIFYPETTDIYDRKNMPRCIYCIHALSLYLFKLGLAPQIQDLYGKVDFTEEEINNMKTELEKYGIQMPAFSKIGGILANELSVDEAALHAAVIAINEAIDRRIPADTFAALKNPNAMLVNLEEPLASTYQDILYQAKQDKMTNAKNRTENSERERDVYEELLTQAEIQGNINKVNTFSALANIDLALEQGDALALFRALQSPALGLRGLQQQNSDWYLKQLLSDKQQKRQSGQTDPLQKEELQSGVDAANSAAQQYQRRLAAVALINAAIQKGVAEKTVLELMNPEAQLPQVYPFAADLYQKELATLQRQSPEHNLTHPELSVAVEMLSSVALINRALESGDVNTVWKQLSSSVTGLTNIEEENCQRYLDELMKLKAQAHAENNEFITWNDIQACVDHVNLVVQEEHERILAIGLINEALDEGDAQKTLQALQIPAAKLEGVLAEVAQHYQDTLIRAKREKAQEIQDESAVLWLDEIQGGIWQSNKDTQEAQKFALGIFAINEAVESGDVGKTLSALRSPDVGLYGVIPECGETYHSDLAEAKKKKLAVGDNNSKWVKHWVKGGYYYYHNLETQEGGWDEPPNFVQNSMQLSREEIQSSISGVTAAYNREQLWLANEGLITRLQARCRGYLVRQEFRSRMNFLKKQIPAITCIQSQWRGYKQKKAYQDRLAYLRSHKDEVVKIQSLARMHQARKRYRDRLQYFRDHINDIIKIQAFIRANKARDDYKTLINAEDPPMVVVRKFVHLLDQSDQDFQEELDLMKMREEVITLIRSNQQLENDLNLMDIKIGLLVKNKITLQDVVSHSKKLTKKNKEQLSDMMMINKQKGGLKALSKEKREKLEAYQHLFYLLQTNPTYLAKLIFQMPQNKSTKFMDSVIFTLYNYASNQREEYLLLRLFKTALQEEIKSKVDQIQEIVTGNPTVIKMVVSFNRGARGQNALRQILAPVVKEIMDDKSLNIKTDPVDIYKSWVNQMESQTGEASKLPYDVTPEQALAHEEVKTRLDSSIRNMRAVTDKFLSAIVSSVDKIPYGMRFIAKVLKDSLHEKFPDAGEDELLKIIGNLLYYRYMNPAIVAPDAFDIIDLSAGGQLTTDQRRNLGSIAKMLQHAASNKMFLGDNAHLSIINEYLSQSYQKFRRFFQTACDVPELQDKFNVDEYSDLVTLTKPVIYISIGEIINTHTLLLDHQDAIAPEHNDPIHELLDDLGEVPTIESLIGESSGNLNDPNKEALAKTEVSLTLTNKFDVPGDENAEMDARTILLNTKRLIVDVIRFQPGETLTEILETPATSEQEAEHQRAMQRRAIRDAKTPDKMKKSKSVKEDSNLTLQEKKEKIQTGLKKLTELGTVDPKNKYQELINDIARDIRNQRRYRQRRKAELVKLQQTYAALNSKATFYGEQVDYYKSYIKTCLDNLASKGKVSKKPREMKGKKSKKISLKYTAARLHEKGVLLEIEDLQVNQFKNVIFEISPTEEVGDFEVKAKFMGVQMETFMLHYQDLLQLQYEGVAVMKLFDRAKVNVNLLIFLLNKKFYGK
# [6] = biological target: T6, HeLa cell extract proteins (Homo sapiens, UniProt O95382)
# T6 construct: endogenous in cells; host or cells: HeLa cell extract
# T6 sequence (O95382 1-1288): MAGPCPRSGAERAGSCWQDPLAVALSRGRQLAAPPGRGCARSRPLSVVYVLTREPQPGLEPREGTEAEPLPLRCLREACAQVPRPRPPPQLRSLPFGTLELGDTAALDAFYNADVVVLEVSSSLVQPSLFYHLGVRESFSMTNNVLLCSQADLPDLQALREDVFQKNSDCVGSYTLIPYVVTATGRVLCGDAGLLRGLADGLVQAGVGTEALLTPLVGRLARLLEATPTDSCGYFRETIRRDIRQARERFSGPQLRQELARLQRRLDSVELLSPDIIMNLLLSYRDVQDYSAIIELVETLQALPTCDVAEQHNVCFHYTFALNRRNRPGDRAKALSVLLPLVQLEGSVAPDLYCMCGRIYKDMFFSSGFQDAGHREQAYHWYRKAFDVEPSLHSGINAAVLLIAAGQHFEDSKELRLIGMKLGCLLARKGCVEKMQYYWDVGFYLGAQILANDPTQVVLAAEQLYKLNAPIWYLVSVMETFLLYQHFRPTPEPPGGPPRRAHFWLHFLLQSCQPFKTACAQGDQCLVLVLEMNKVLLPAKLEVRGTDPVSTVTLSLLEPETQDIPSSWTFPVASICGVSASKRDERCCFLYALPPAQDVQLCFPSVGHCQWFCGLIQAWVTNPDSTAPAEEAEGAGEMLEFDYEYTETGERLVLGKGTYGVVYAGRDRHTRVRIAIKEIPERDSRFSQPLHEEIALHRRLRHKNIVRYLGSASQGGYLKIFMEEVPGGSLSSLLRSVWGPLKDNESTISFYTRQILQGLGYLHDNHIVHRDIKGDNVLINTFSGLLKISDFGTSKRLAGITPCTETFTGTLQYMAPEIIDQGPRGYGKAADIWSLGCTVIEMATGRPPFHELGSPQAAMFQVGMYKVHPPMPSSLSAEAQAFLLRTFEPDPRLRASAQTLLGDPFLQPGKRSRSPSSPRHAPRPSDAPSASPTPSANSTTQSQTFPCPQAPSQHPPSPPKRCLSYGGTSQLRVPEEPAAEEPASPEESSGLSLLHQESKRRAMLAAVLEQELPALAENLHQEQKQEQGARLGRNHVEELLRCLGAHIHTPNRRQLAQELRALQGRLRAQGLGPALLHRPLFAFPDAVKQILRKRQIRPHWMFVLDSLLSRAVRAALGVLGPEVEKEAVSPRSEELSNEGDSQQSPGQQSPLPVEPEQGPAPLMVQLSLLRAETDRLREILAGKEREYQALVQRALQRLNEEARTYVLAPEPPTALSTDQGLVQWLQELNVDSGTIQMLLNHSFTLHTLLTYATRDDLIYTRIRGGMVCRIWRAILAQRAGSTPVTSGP
# T1 sequence (P60228 whole entry): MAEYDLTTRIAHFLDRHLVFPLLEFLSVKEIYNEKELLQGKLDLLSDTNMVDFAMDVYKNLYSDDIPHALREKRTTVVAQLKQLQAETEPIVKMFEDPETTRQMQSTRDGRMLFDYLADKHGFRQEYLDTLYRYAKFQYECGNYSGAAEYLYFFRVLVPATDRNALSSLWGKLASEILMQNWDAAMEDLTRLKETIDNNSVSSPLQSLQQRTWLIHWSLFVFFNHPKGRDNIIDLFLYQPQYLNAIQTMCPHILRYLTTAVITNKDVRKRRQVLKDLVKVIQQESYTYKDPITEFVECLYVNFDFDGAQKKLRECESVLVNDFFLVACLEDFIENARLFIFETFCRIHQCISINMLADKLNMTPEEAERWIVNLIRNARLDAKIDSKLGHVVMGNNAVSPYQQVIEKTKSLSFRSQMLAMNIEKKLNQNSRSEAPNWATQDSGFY
SMILES,"fold changes relative to vehicle control ([1]; HeLa, protein EIF3E)","fold changes relative to vehicle control ([2]; HeLa, protein PABPC4)","fold changes relative to vehicle control ([3]; HeLa, protein AP1G1)","fold changes relative to vehicle control ([4]; HeLa, protein SPTLC1)","fold changes relative to vehicle control ([5]; HeLa, protein IQGAP1)","fold changes relative to vehicle control ([6]; HeLa, protein MAP3K6)",fold changes relative to vehicle control [1],fold changes relative to vehicle control [2],fold changes relative to vehicle control [3],fold changes relative to vehicle control [4],fold changes relative to vehicle control [5],fold changes relative to vehicle control [6],"fold changes relative to vehicle control ([1]; protein EIF3E, HeLa)","fold changes relative to vehicle control ([2]; captured protein PABPC4, HeLa)","fold changes relative to vehicle control ([3]; protein AP1G1, HeLa)","fold changes relative to vehicle control ([4]; captured protein SPTLC1, HeLa)","fold changes relative to vehicle control ([5]; protein IQGAP1, HeLa)"
"Nc1nc2c(c(=O)[nH]1)N(C=O)C(CNc1ccc(C(=O)N[C@@H](CCC(=O)O)C(=O)O)cc1)CN2 (stereo partly drawn) [LEU, leucovorin]",1.15,0.83,1.1,0.9,1.02,0.99,–,–,–,–,–,–,–,–,–,–,–
"Nc1nc2[nH]cc(CCc3ccc(C(=O)N[C@@H](CCC(=O)O)C(=O)O)cc3)c2c(=O)[nH]1 [PTX, pemetrexed]",–,–,–,–,–,–,1.04,0.93,1.09,0.95,1.08,1.16,–,–,–,–,–
CCCCCCOc1ccc(Cc2cnc(N)nc2N)cc1 [compound 1],–,–,–,–,–,0.99,–,–,–,–,–,–,1.18,0.86,1.19,0.8,0.99
CCCCCCOc1cccc(Cc2cnc(N)nc2N)c1 [compound 2],–,–,–,–,–,0.97,–,–,–,–,–,–,1.21,1.2,1.51,1.03,1.69
Nc1nc2cccc(-c3ccccc3)c2n1Cc1ccc(Cl)c(Cl)c1 [compound 3],–,–,–,–,–,0.97,–,–,–,–,–,–,0.99,0.94,0.97,1.09,0.93
NCCOCCOCC(=O)Nc1nc2ncc(CNc3ccc(C(=O)NC(CCC(=O)O)C(=O)O)cc3)nc2c(=O)[nH]1 (stereo not drawn) [compound 6],1.11,1.06,1.17,0.95,1.25,1.19,–,–,–,–,–,–,–,–,–,–,–
NCCCNc1ccc(C(=O)NC(CCC(=O)O)C(=O)O)cc1 (stereo not drawn) [compound 7],1.01,1,1.17,1.03,1.18,1.16,–,–,–,–,–,–,–,–,–,–,–
